# In ChEMBL document CHEMBL1201862, “PubChem BioAssay data set” (2004):
#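 These data come from cells grown in 96-well plates and exposed to compound for 48 hours at five concentrations. The concentration for 50% growth inhibition is given as GI50.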 Activity calls are given as the source filed them. No stated cut-off is given here; in the data, active = GI50 up to about 1.1 µM and inactive = higher.
# Key:
# Experiment in all cases: NCI anticancer screen, dose series, 48 h
# [1] = system: SK-MEL-5
# [2] = system: RPMI-8226
# [3] = system: SK-MEL-2
# [4] = system: NCI-H226
# [5] = system: CAKI-1
# [6] = system: NCI/ADR-RES
# [7] = system: UACC-257
# [8] = system: HT-29
# [9] = system: SK-OV-3
# [10] = system: HCT-15
# [11] = system: OVCAR-8
# [12] = system: NCI-H23
# [13] = system: A549
# [14] = system: MDA-N
# [15] = system: OVCAR-5
# [16] = system: UACC-62
# [17] = system: PC-3
# [18] = system: SNB-19
# [19] = system: ACHN
# [20] = system: A498
Structure (SMILES),GI50 [1],GI50 [2],GI50 [3],GI50 [4],GI50 [5],GI50 [6],GI50 [7],GI50 [8],GI50 [9],GI50 [10] [µM],GI50 [11],GI50 [12],GI50 [13],GI50 [14],GI50 [15],GI50 [16],GI50 [17],GI50 [18],GI50 [19],GI50 [20]
CCN(CCCl)c1cc(CN(C)C)cc(NC(=O)c2ccc(C(=O)Nc3cc(CN(C)C)cc(N(CC)CCCl)c3)cc2)c1,0.158 µM (active),0.0885 µM (active),0.12 µM (active),0.0697 µM (active),0.272 µM (active),42 µM (inactive),0.356 µM (active),0.0951 µM (active),0.226 µM (active),5.69,0.224 µM (active),0.0665 µM (active),0.0955 µM (active),0.154 µM (active),0.24 µM (active),0.0736 µM (active),0.19 µM (active),0.0873 µM (active),0.162 µM (active),
NC(=S)N1N=C2c3ccccc3CCC[C@H]2[C@@H]1c1ccccc1,0.664 µM (active),0.824 µM (active),0.236 µM (active),2.6 µM (inactive),,0.348 µM (active),2.21 µM (inactive),0.867 µM (active),0.427 µM (active),1.29,3.2 µM (inactive),1.84 µM (inactive),1.52 µM (inactive),0.0531 µM (active),9.57 µM (inactive),,1.1 µM (active),1.37 µM (inactive),5.07 µM (inactive),3.1 µM (inactive)
C=C(C)C1Cc2c(cc(O)c3c(=O)c4c(oc23)C(O)Oc2cc(OC)c(OC)cc2-4)O1 (stereo not given),,> 10 µM (inactive),,6.97 µM (inactive),> 10 µM (inactive),> 10 µM (inactive),> 10 µM (inactive),> 10 µM (inactive),,> 10,> 10 µM (inactive),> 10 µM (inactive),> 10 µM (inactive),> 10 µM (inactive),> 10 µM (inactive),> 10 µM (inactive),> 10 µM (inactive),> 10 µM (inactive),> 10 µM (inactive),> 10 µM (inactive)
CCOP(=O)(OCC)C(F)(F)c1ccc(CC(NC(=O)OC(C)(C)C)C(=O)O)cc1 (stereo not given),> 10 µM (inactive),,,> 10 µM (inactive),> 10 µM (inactive),> 10 µM (inactive),> 10 µM (inactive),> 10 µM (inactive),> 10 µM (inactive),> 10,> 10 µM (inactive),> 10 µM (inactive),> 10 µM (inactive),> 10 µM (inactive),> 10 µM (inactive),> 10 µM (inactive),> 10 µM (inactive),> 10 µM (inactive),> 10 µM (inactive),> 10 µM (inactive)
CC1(C)[C@H]2CC[C@](C)(C2)[C@]1(S)Cc1ccccn1,21.8 µM (inactive),21.5 µM (inactive),20.8 µM (inactive),,57.1 µM (inactive),50.5 µM (inactive),25.6 µM (inactive),24.9 µM (inactive),29.8 µM (inactive),41.7,17.5 µM (inactive),44.6 µM (inactive),42.7 µM (inactive),39.3 µM (inactive),88.9 µM (inactive),67.8 µM (inactive),21.7 µM (inactive),> 100 µM (inactive),54.2 µM (inactive),> 100 µM (inactive)
COc1cc(CNc2nc3ccccc3nc2-c2cccs2)cc(OC)c1OC,12.5 µM (inactive),10.5 µM (inactive),,29.5 µM (inactive),11.2 µM (inactive),8.24 µM (inactive),34 µM (inactive),26.9 µM (inactive),29.8 µM (inactive),21.9,14.3 µM (inactive),14.5 µM (inactive),18.7 µM (inactive),16.3 µM (inactive),4.19 µM (inactive),13.7 µM (inactive),11.6 µM (inactive),,13.9 µM (inactive),18.6 µM (inactive)
O=[N+]([O-])c1cccc2nnccc12,14.1 µM (inactive),22 µM (inactive),24.7 µM (inactive),16 µM (inactive),34.9 µM (inactive),34.1 µM (inactive),16.5 µM (inactive),20.3 µM (inactive),93.3 µM (inactive),12.9,31.9 µM (inactive),23.3 µM (inactive),54.8 µM (inactive),17.6 µM (inactive),63.5 µM (inactive),13.6 µM (inactive),31.8 µM (inactive),35.9 µM (inactive),11.7 µM (inactive),
C=CC1(C)CCC2C(=CCC3C2(C)CC(O)C(O)C3(C)COC2OC(CO)C(O)C(O)C2O)C1 (stereo not given),> 100 µM (inactive),,> 100 µM (inactive),> 100 µM (inactive),> 100 µM (inactive),> 100 µM (inactive),> 100 µM (inactive),> 100 µM (inactive),> 100 µM (inactive),> 100,> 100 µM (inactive),> 100 µM (inactive),> 100 µM (inactive),> 100 µM (inactive),> 100 µM (inactive),> 100 µM (inactive),> 100 µM (inactive),44.8 µM (inactive),> 100 µM (inactive),> 100 µM (inactive)
Cc1cc(C#N)c(Nc2ccccc2[N+](=O)[O-])s1,,22.6 µM (inactive),,51.1 µM (inactive),77.8 µM (inactive),17.4 µM (inactive),68.5 µM (inactive),,26.4 µM (inactive),28.8,31 µM (inactive),26.1 µM (inactive),85.3 µM (inactive),14.9 µM (inactive),14.2 µM (inactive),54.2 µM (inactive),23.8 µM (inactive),41 µM (inactive),58.7 µM (inactive),37.7 µM (inactive)
COc1ccc(C(=O)/C=C/c2ccc(OCC#N)cc2)cc1OC,18.3 µM (inactive),,,19.5 µM (inactive),17.4 µM (inactive),18.5 µM (inactive),> 10 µM (inactive),22.3 µM (inactive),26.5 µM (inactive),20,28 µM (inactive),21.9 µM (inactive),29.1 µM (inactive),> 10 µM (inactive),> 10 µM (inactive),16.7 µM (inactive),> 10 µM (inactive),15.1 µM (inactive),30.1 µM (inactive),> 10 µM (inactive)
O=C(C=P(c1ccccc1)(c1ccccc1)c1ccccc1)c1ccc(-c2cccc([N+](=O)[O-])c2)s1,29.9 µM (inactive),19.5 µM (inactive),,,35.2 µM (inactive),25.8 µM (inactive),,29.6 µM (inactive),36.1 µM (inactive),41.1,47.3 µM (inactive),77.6 µM (inactive),57.5 µM (inactive),29.7 µM (inactive),> 100 µM (inactive),59 µM (inactive),24.9 µM (inactive),> 100 µM (inactive),45.4 µM (inactive),35.2 µM (inactive)
CC1=C(C)C(=O)C(C2=CC(=O)C=CC2=O)=C(C2=CC(=O)C=CC2=O)C1=O,21.3 µM (inactive),,> 100 µM (inactive),> 100 µM (inactive),25.2 µM (inactive),> 100 µM (inactive),> 67.1 µM (inactive),> 72.6 µM (inactive),> 100 µM (inactive),41,36.6 µM (inactive),> 100 µM (inactive),98.9 µM (inactive),26.9 µM (inactive),> 58.9 µM (inactive),39.6 µM (inactive),62.8 µM (inactive),> 100 µM (inactive),59.4 µM (inactive),> 100 µM (inactive)
CN(C)/C=[N+]1/[C@@H](Cc2ccccc2)C(=O)O[B-]1(F)c1ccccc1 (stereo not given in full),> 100 µM (inactive),> 100 µM (inactive),,> 100 µM (inactive),,> 100 µM (inactive),> 100 µM (inactive),> 100 µM (inactive),> 100 µM (inactive),> 100,> 100 µM (inactive),> 100 µM (inactive),> 100 µM (inactive),> 100 µM (inactive),> 100 µM (inactive),> 100 µM (inactive),> 100 µM (inactive),> 100 µM (inactive),> 100 µM (inactive),> 100 µM (inactive)
CN(C)Cc1cc(C(=O)/C=C/c2ccc(Br)cc2)cc(CN(C)C)c1O,10.7 µM (inactive),4.74 µM (inactive),,17.3 µM (inactive),2.28 µM (inactive),16.7 µM (inactive),6.53 µM (inactive),3.2 µM (inactive),,11.8,4.03 µM (inactive),15.7 µM (inactive),8.22 µM (inactive),2.22 µM (inactive),19.3 µM (inactive),,1.67 µM (inactive),12.8 µM (inactive),3.6 µM (inactive),14.3 µM (inactive)
COC1=CC(=O)c2c(CCNC(=O)OCc3ccccc3)n[nH]c2C1=O,3.97 µM (inactive),13 µM (inactive),11 µM (inactive),,,75.9 µM (inactive),14.9 µM (inactive),22.8 µM (inactive),,12.6,23.1 µM (inactive),4.01 µM (inactive),19.6 µM (inactive),2.24 µM (inactive),18.1 µM (inactive),5.79 µM (inactive),30.4 µM (inactive),14.7 µM (inactive),14.2 µM (inactive),17.5 µM (inactive)
